According to US20070219191A1, “3-Pyridinium Methyl Cephem Compound” (priority 2004, published 2007):
Converted amounts (≈) assume the structure as drawn.

Experiments:
Experiment in all cases: Antibacterial activity, MIC by agar plate dilution method
Type in all cases: cell-based
E. coli NIHJ JC-2 = details: Escherichia coli, NIHJJC2, 1000 cfu/spot
Description: (§1) Antibacterial activity of Compound (I) was examined.
(§2) Minimal inhibitory concentration (MIC: μg/ml) was determined by an agar plate dilution method using a sensitive disc medium as a test medium with an innoculation amount of 1000 cfu/spot in conformance with the standard method established by Japanese Society of Chemotherapy.

H. influenzae ATCC49766 = details: Haemophilus influenzae, 1000 cfu/spot
Description: as §1, §2

P. aeruginosa SR24 = details: Pseudomonas aeruginosa, 1000 cfu/spot
Description: as §1, §2

S. pneumoniae Type I = details: Streptococcus pneumoniae, 1000 cfu/spot
Description: as §1, §2

CC(C)(O/N=C(\C(=O)NC1C(=O)N2C(C(=O)[O-])=C(C[n+]3ccc(NC4CCNC4)cc3)CSC12)c1nsc(N)n1)C(=O)O (stereo not shown) [Example 5]
MIC (E. coli NIHJ JC-2): 0.125 µg/mL (≈ 0.198 µM) | MIC (H. influenzae ATCC49766): 0.063 µg/mL (≈ 0.0997 µM) | MIC (P. aeruginosa SR24): 0.5 µg/mL (≈ 0.792 µM) | MIC (S. pneumoniae Type I): 0.125 µg/mL (≈ 0.198 µM)

Cc1c(N)[nH]c2ccc[n+](CC3=C(C(=O)[O-])N4C(=O)C(NC(=O)/C(=N\OC(C)(C)C(=O)O)c5nsc(N)n5)C4SC3)c12 (stereo not shown) [Example 10]
MIC (E. coli NIHJ JC-2): 0.25 µg/mL (≈ 0.406 µM) | MIC (H. influenzae ATCC49766): 0.016 µg/mL (≈ 0.026 µM) | MIC (P. aeruginosa SR24): 0.5 µg/mL (≈ 0.812 µM) | MIC (S. pneumoniae Type I): 0.125 µg/mL (≈ 0.203 µM)

CC(C)(O/N=C(\C(=O)NC1C(=O)N2C(C(=O)[O-])=C(C[n+]3cccc4c3nc(N)n4C3CCNCC3)CSC12)c1nsc(N)n1)C(=O)O (stereo not shown) [Example 12]
MIC (E. coli NIHJ JC-2): 0.125 µg/mL (≈ 0.182 µM) | MIC (H. influenzae ATCC49766): 0.032 µg/mL (≈ 0.0467 µM) | MIC (P. aeruginosa SR24): 0.25 µg/mL (≈ 0.365 µM) | MIC (S. pneumoniae Type I): 0.25 µg/mL (≈ 0.365 µM)

C[C@H](N)CCn1c(N)nc2c1ccc[n+]2CC1=C(C(=O)[O-])N2C(=O)C(NC(=O)/C(=N\OC(C)(C)C(=O)O)c3nsc(N)n3)C2SC1 (stereo partly shown) [Example 19]
MIC (E. coli NIHJ JC-2): 0.125 µg/mL (≈ 0.186 µM) | MIC (H. influenzae ATCC49766): 0.032 µg/mL (≈ 0.0475 µM) | MIC (P. aeruginosa SR24): 0.5 µg/mL (≈ 0.742 µM) | MIC (S. pneumoniae Type I): 0.125 µg/mL (≈ 0.186 µM)
